Data on two compounds can be found in patent US6448287B1 (priority 1999, dated 2002).

≈ marks a conversion by molar mass, not a printed value. Read-outs that look alike come from different tables or passages of the source. A value given as a limit tells only on which side of the number the result lay.

The subject of data set [1] is B16 melanoma. In words: Murine tumor model: B16 melanoma in C57 mice. Type of data set: in vivo. On the procedure:
C57 mice were divided into groups of twenty and inoculated by B16 melanoma cells subcutaneously. After forty-eight hours, treatments were administered once every other day for a five week period by subcutaneous injection near the tumor site. Tumor size was measured on days ten, seventeen, and twenty-four of treatment. […]

Data set [2] has as its system SW620 hollow fiber tumors.
Method: (§3) SW620 hollow fiber solid tumors were grown as previously described. […] SW620 colon carcinoma cells were prepared in cell culture medium at a concentration of 10^7 cells/ml and injected into the hollow fibers. The fibers were then heat sealed at roughly 2 cm intervals to trap the cells inside them. SW620 hollow fibers were then cultured in Petri dishes for three days. After three days, the hollow fibers are transferred to stirred medium either by moving them to spinner flasks containing 50 ml cell culture medium stirred at 150 rpm by a magnetic stirrer or by transferring them to six-well plates placed on an orbital shaker at 150 rpm. Cell culture medium was replenished on days three and six. […] After one or two days incubation on an orbital shaker, the hollow fiber tumors were rinsed and the cells were extruded out of the fibers with trypsin. The cylindrical tumor cell mass was exposed to trypsin while pipetting up and down to form a single cell suspension. Cell culture medium was then added to stop trypsin action. Surviving fractions were determined as previously described. Briefly, cells were transferred to ninety-six-well plates at a concentration of 5000 cells per well and incubated for six days. The surviving cell population was then measured using the SRB colorimetric assay. Surviving fraction was expressed as the ratio of the SRB staining at a given dose to that for cells from untreated hollow fiber tumors.
(§4) The surviving fractions without ascorbate (denoted SFO) were analyzed along with the doses of ascorbate required to reduce the surviving fraction to half the SFO value, denoted LC50. Standard deviations for SFO and LC50 values were analyzed by the curve-fitting program KalediaGraph (Synergy Software).
(§5) Data from three replicate experiments were pooled. The doses of ascorbate required to reduce the surviving fraction to half the control value were denoted as LC50. Standard deviations on LC50 values were estimated by the curve-fitting program kaleidaGraph (Synergy Software).
The nature of data set [3]: Toxicity test in cell monolayers, ECV-304. Type of data set: cell-based. Conditions: human, ECV-304 endothelial cell monolayer; read-out: LC50. As to the method:
(§1) In solid tumors, proliferating cells are sometimes more sensitive to treatment than quiescent, non-proliferating cells. To investigate this in cell monolayers, we used sparse plating densities (6K/well in a 96 well plate) to allow cell proliferation and confluent densities (24K/well in a 96 well plate) to simulate quiescent cells. Cells were plated in 96 well plates at sparse or confluent densities and then incubated four days in growth medium supplemented with various doses of antioxidants. After incubation, cell numbers were determined by standard […] techniques. Data were analyzed by scaling the cell number at any given antioxidant dose to that of the control and fitting the dose-response data to a sigmoid curve. Values of LC50, the dose required to reduce cell number by fifty percent relative to untreated controls, were computed from the sigmoid data fit.

For data set [4], the system named is SK-MEL (Melanoma). Nature of the data set: Toxicity test in cell monolayers, SK-MEL. Type of data set: cell-based. The conditions noted are these: Homo sapiens, 96 h, lipoic acid as sodium salt. As to the method:
as §1

Data set [5] relates to SW620 (Colon Adenocarcinoma). Nature of the data set: Toxicity test in cell monolayers, SW620. Type of data set: cell-based. Conditions: Homo sapiens, SW-620, 96 h, lipoic acid as sodium salt. As to the method:
as §1

Data set [6] can be described thus: Phase one clinical trial of continuous ascorbate infusions (safety). Conditions: doses up to 50 g/day. As to the method: (§2) A person with diagnosed metastatic prostate cancer was infused intravenously with […] sodium ascorbate in sterile water over an eighty minute period. Blood samples were taken at regular intervals over a twenty-four hour period, frozen, and then analyzed for ascorbate content using a colorimetric assay. The ascorbate plasma concentration was analyzed in a prostate cancer patient given a 60 gram intravenous infusion of sodium ascorbate over an 80 minute period. […] The plasma volume Vp, was fixed at 30 dl. […] Predicted plasma ascorbate levels from a two compartment, four parameter pharmacokinetic model of ascorbate transport and clearance in blood. […] Infusion is modeled as continuous. Parameter values for the compartmental model are as follows: KX=0.124 min^−1, K1=0.124 min^−1, K2=0.038 min^−1. The plasma volume Vp, was fixed at 30 dl. A phase one clinical trial is currently under way to assess the safety of continuous ascorbate infusions, and is currently near completion.

The subject of data set [7] is SW620 hollow fiber tumors. Nature of the data set: cells. The conditions noted are these: Homo sapiens, SW-620, read-out: ascorbate LC50 (dose reducing surviving fraction to half the control value).
Method: as §3, §4, §5
The subject of data set [8] is MCF-7 (Breast Carcinoma). Nature of the data set: Toxicity test in cell monolayers, MCF-7. Type of data set: cell-based. The conditions noted are these: Homo sapiens, MCF7, 96 h, lipoic acid as sodium salt. As to the method:
as §1

The subject of data set [9] is Mia PaCa (Pancreatic Carcinoma). Nature of the data set: Toxicity test in cell monolayers, Mia PaCa. Conditions: Homo sapiens, MIA PaCa-2, 96 h, lipoic acid as sodium salt. Type of data set: cell-based. As to the method:
as §1

For data set [10] the following is noted: humans, intravenous infusion, peak level; cited from earlier work.
In data set [11] the test system is SW620 hollow fiber tumors. Conditions: hollow fiber solid tumor model, background statement; cited from earlier work.
For data set [12] the following is noted: male, human, in vivo, iv. As to the method:
as §2

`O=C(O)CCCCC1CCSS1` (racemic) [Lipoic Acid, DL-α-Lipoic Acid (DL-6,8-Thioctic Acid)]: the “Animal Survival (percent)” value in [1] (day twenty-four, control 70%) came to 90%. Besides, the “Animal Survival (survivors/group)” value in data set [1] (day twenty-four, groups of twenty, control 14/20) is 18/20. Moreover, the “tumor size compared with the control group” value in data set [1] (measured on days ten, seventeen and twenty-four of treatment) was “significantly smaller”. The “toxic effect of lipoic acid itself (surviving fraction without ascorbate, SFO)” value in [2] (lipoic acid 5 mg/dl or 20 mg/dl, 48 hours) was “exhibited a toxic effect”.

For `O=C1O[C@H]([C@@H](O)CO)C(O)=C1O` [Ascorbate, ascorbic acid], the CC50 at 4 days in [3] is 1490 ± 160 µg/mL (≈ 8.46 mM). Also, the CC50 in data set [4] (read-out: LC50, SK-MEL, confluent density (24K/well), four days incubation) worked out at 780 ± 160 µg/mL; in data set [4] (read-out: LC50, SK-MEL, sparse density (6K/well), four days incubation), 150 ± 20 µg/mL; in data set [5] (read-out: LC50, SW620, confluent density (24K/well), four days incubation), 390 ± 140 µg/mL; in data set [5] (read-out: LC50, SW620, sparse density (6K/well), four days incubation) it was 300 ± 40 µg/mL; in [7] it was 4900 µg/mL (≈ 27.8 mM); in [8] (read-out: LC50, MCF-7, confluent density (24K/well), four days incubation), 230 ± 30 µg/mL. Also, the CC50 in data set [8] (read-out: LC50, MCF-7, sparse density (6K/well), four days incubation) came out at 120 ± 10 µg/mL; in [9] (read-out: LC50, Mia PaCa, confluent density (24K/well), four days incubation), 3080 ± 330 µg/mL; in data set [9] (read-out: LC50, Mia PaCa, sparse density (6K/well), four days incubation), 530 ± 60 µg/mL. Moreover, in data set [6], the “safety of continuous ascorbate infusions” value is given as “found safe”. The “maximum plasma ascorbic acid concentration generally achievable” value in data set [10] was “roughly 500 mg/dL”. Moreover, the surviving fraction result in data set [2] (52 mg/dL ascorbate for forty-eight hours, based on the data in EXAMPLE 2) was “greater than ninety percent”. Moreover, the “ascorbate concentration that may be required to effectively treat tumors” value in data set [11] is above 500 mg/dL. Moreover, in [12], the K1 came out at 0.124 min⁻¹. The same compound gave a K2 in data set [12] of 0.038 min⁻¹. Also, the KX in data set [12] is 0.124 min⁻¹. Besides, the peak plasma value in data set [12] is 460 mg/dL.
